# Assay: The drug is tested on Bifidobacterium breve strain: DSM20213 for biotransformation. The drug concentrations were measured before and after a 12-h incubation by liquid-chromatography-coupled mass spectrometry (LC–MS)
# Settings: 2 µM
row,Structure (SMILES),Bacterial Biotransformation
1,O=C(CCCN1CCC(O)(c2ccc(Cl)cc2)CC1)c1ccc(F)cc1 [HALOPERIDOL],Compound NOT metabolized
2,CCN(CC)CCOC(=O)C1(C2CCCCC2)CCCCC1 [DICYCLOMINE],Compound NOT metabolized
3,O=C(Nc1ccccc1)OCC(CN1CCCCC1)OC(=O)Nc1ccccc1 (centres undefined) [DIPERODON],Compound NOT metabolized
4,CN1CCOC(c2ccccc2)c2ccccc2C1 (centres undefined) [NEFOPAM],Compound NOT metabolized

# Assay: The drug is tested on Bacteroides caccae strain: ATCC43185 for biotransformation. The drug concentrations were measured before and after a 12-h incubation by liquid-chromatography-coupled mass spectrometry (LC–MS)
# Settings: 2 µM
row,Structure (SMILES),Bacterial Biotransformation
1,O=C(CCCN1CCC(O)(c2ccc(Cl)cc2)CC1)c1ccc(F)cc1 [HALOPERIDOL],Compound NOT metabolized
2,CCN(CC)CCOC(=O)C1(C2CCCCC2)CCCCC1 [DICYCLOMINE],Compound NOT metabolized
3,O=C(Nc1ccccc1)OCC(CN1CCCCC1)OC(=O)Nc1ccccc1 (centres undefined) [DIPERODON],Compound NOT metabolized
4,CN1CCOC(c2ccccc2)c2ccccc2C1 (centres undefined) [NEFOPAM],Compound NOT metabolized

# Assay: The drug is tested on Bacteroides vulgatus strain: ATCC8482 for biotransformation. The drug concentrations were measured before and after a 12-h incubation by liquid-chromatography-coupled mass spectrometry (LC–MS)
# Settings: phocaeicola vulgatus, 2 µM
row,Structure (SMILES),Bacterial Biotransformation
1,O=C(CCCN1CCC(O)(c2ccc(Cl)cc2)CC1)c1ccc(F)cc1 [HALOPERIDOL],Compound NOT metabolized
2,CCN(CC)CCOC(=O)C1(C2CCCCC2)CCCCC1 [DICYCLOMINE],Compound metabolized
3,O=C(Nc1ccccc1)OCC(CN1CCCCC1)OC(=O)Nc1ccccc1 (centres undefined) [DIPERODON],Compound NOT metabolized

# Assay: The drug is tested on Odoribacter splanchnicus strain: fecal isolate for biotransformation. The drug concentrations were measured before and after a 12-h incubation by liquid-chromatography-coupled mass spectrometry (LC–MS)
# Settings: 2 µM
row,Structure (SMILES),Bacterial Biotransformation
1,O=C(CCCN1CCC(O)(c2ccc(Cl)cc2)CC1)c1ccc(F)cc1 [HALOPERIDOL],Compound NOT metabolized

# Assay: The drug is tested on Clostridium scindens strain: ATCC35704 for biotransformation. The drug concentrations were measured before and after a 12-h incubation by liquid-chromatography-coupled mass spectrometry (LC–MS)
# Settings: 2 µM
row,Structure (SMILES),Bacterial Biotransformation
1,O=C(CCCN1CCC(O)(c2ccc(Cl)cc2)CC1)c1ccc(F)cc1 [HALOPERIDOL],Compound NOT metabolized
2,O=C(Nc1ccccc1)OCC(CN1CCCCC1)OC(=O)Nc1ccccc1 (centres undefined) [DIPERODON],Compound NOT metabolized
3,CN1CCOC(c2ccccc2)c2ccccc2C1 (centres undefined) [NEFOPAM],Compound NOT metabolized

# Assay: The drug is tested on Clostridium sporogenes strain: ATCC15579 for biotransformation. The drug concentrations were measured before and after a 12-h incubation by liquid-chromatography-coupled mass spectrometry (LC–MS)
# Settings: 2 µM
row,Structure (SMILES),Bacterial Biotransformation
1,O=C(CCCN1CCC(O)(c2ccc(Cl)cc2)CC1)c1ccc(F)cc1 [HALOPERIDOL],Compound NOT metabolized
2,CCN(CC)CCOC(=O)C1(C2CCCCC2)CCCCC1 [DICYCLOMINE],Compound NOT metabolized
3,O=C(Nc1ccccc1)OCC(CN1CCCCC1)OC(=O)Nc1ccccc1 (centres undefined) [DIPERODON],Compound NOT metabolized

# Assay: The drug is tested on Enterococcus faecalis strain: V583 for biotransformation. The drug concentrations were measured before and after a 12-h incubation by liquid-chromatography-coupled mass spectrometry (LC–MS)
# Settings: 2 µM
row,Structure (SMILES),Bacterial Biotransformation
1,O=C(CCCN1CCC(O)(c2ccc(Cl)cc2)CC1)c1ccc(F)cc1 [HALOPERIDOL],Compound NOT metabolized
2,CCN(CC)CCOC(=O)C1(C2CCCCC2)CCCCC1 [DICYCLOMINE],Compound NOT metabolized
3,O=C(Nc1ccccc1)OCC(CN1CCCCC1)OC(=O)Nc1ccccc1 (centres undefined) [DIPERODON],Compound NOT metabolized
4,CN1CCOC(c2ccccc2)c2ccccc2C1 (centres undefined) [NEFOPAM],Compound NOT metabolized

# Assay: The drug is tested on Ruminococcus lactaris strain: ATCC29176 for biotransformation. The drug concentrations were measured before and after a 12-h incubation by liquid-chromatography-coupled mass spectrometry (LC–MS)
# Settings: 2 µM
row,Structure (SMILES),Bacterial Biotransformation
1,O=C(CCCN1CCC(O)(c2ccc(Cl)cc2)CC1)c1ccc(F)cc1 [HALOPERIDOL],Compound NOT metabolized
2,CCN(CC)CCOC(=O)C1(C2CCCCC2)CCCCC1 [DICYCLOMINE],Compound NOT metabolized
3,O=C(Nc1ccccc1)OCC(CN1CCCCC1)OC(=O)Nc1ccccc1 (centres undefined) [DIPERODON],Compound NOT metabolized
4,CN1CCOC(c2ccccc2)c2ccccc2C1 (centres undefined) [NEFOPAM],Compound NOT metabolized

# Assay: The drug is tested on Escherichia coli strain: BW25113 for biotransformation. The drug concentrations were measured before and after a 12-h incubation by liquid-chromatography-coupled mass spectrometry (LC–MS)
# Settings: 2 µM
row,Structure (SMILES),Bacterial Biotransformation
1,O=C(CCCN1CCC(O)(c2ccc(Cl)cc2)CC1)c1ccc(F)cc1 [HALOPERIDOL],Compound NOT metabolized
2,O=C(Nc1ccccc1)OCC(CN1CCCCC1)OC(=O)Nc1ccccc1 (centres undefined) [DIPERODON],Compound NOT metabolized

# Assay: The drug is tested on Providencia rettgeri strain: DSM1131 for biotransformation. The drug concentrations were measured before and after a 12-h incubation by liquid-chromatography-coupled mass spectrometry (LC–MS)
# Type: ADME
# Design: dose 2 uM, timepoint 0 vs 12 hours
# Settings: 2 µM
row,Structure (SMILES),Bacterial Biotransformation
1,O=C(CCCN1CCC(O)(c2ccc(Cl)cc2)CC1)c1ccc(F)cc1 [HALOPERIDOL],Compound NOT metabolized
2,CCN(CC)CCOC(=O)C1(C2CCCCC2)CCCCC1 [DICYCLOMINE],Compound NOT metabolized
3,O=C(Nc1ccccc1)OCC(CN1CCCCC1)OC(=O)Nc1ccccc1 (centres undefined) [DIPERODON],Compound NOT metabolized
4,CN1CCOC(c2ccccc2)c2ccccc2C1 (centres undefined) [NEFOPAM],Compound NOT metabolized

# Settings: bifidobacterium adolescentis, 12 h, 2 µM
# Description: The drug is tested on Bifidobacterium adolescentis strain: ATCC 15703 for biotransformation. The drug concentrations were measured before and after a 12-h incubation by liquid-chromatography-coupled mass spectrometry (LC–MS)
row,Structure (SMILES),Bacterial Biotransformation
1,O=C(CCCN1CCC(O)(c2ccc(Cl)cc2)CC1)c1ccc(F)cc1 [HALOPERIDOL],Compound NOT metabolized
2,CCN(CC)CCOC(=O)C1(C2CCCCC2)CCCCC1 [DICYCLOMINE],Compound NOT metabolized
3,O=C(Nc1ccccc1)OCC(CN1CCCCC1)OC(=O)Nc1ccccc1 (centres undefined) [DIPERODON],Compound NOT metabolized
4,CN1CCOC(c2ccccc2)c2ccccc2C1 (centres undefined) [NEFOPAM],Compound NOT metabolized

# Settings: bacteroides fragilis, 12 h, 2 µM
# Description: The drug is tested on Bacteroides fragilis strain: 3397 (T10) for biotransformation. The drug concentrations were measured before and after a 12-h incubation by liquid-chromatography-coupled mass spectrometry (LC–MS)
row,Structure (SMILES),Bacterial Biotransformation
1,O=C(CCCN1CCC(O)(c2ccc(Cl)cc2)CC1)c1ccc(F)cc1 [HALOPERIDOL],Compound NOT metabolized
2,O=C(Nc1ccccc1)OCC(CN1CCCCC1)OC(=O)Nc1ccccc1 (centres undefined) [DIPERODON],Compound NOT metabolized
3,CN1CCOC(c2ccccc2)c2ccccc2C1 (centres undefined) [NEFOPAM],Compound NOT metabolized

# Settings: bacteroides thetaiotaomicron, 12 h, 2 µM
# Description: The drug is tested on Bacteroides thetaiotaomicron strain: VPI-5482 for biotransformation. The drug concentrations were measured before and after a 12-h incubation by liquid-chromatography-coupled mass spectrometry (LC–MS)
row,Structure (SMILES),Bacterial Biotransformation
1,O=C(CCCN1CCC(O)(c2ccc(Cl)cc2)CC1)c1ccc(F)cc1 [HALOPERIDOL],Compound NOT metabolized
2,CCN(CC)CCOC(=O)C1(C2CCCCC2)CCCCC1 [DICYCLOMINE],Compound NOT metabolized
3,O=C(Nc1ccccc1)OCC(CN1CCCCC1)OC(=O)Nc1ccccc1 (centres undefined) [DIPERODON],Compound NOT metabolized
4,CN1CCOC(c2ccccc2)c2ccccc2C1 (centres undefined) [NEFOPAM],Compound NOT metabolized

# Settings: parabacteroides distasonis, 12 h, 2 µM
# Description: The drug is tested on Parabacteroides distasonis strain: ATCC8503 for biotransformation. The drug concentrations were measured before and after a 12-h incubation by liquid-chromatography-coupled mass spectrometry (LC–MS)
row,Structure (SMILES),Bacterial Biotransformation
1,CCN(CC)CCOC(=O)C1(C2CCCCC2)CCCCC1 [DICYCLOMINE],Compound metabolized
2,CN1CCOC(c2ccccc2)c2ccccc2C1 (centres undefined) [NEFOPAM],Compound NOT metabolized

# Settings: parabacteroides johnsonii, 12 h, 2 µM
# Description: The drug is tested on Parabacteroides johnsonii strain: DSM18315 for biotransformation. The drug concentrations were measured before and after a 12-h incubation by liquid-chromatography-coupled mass spectrometry (LC–MS)
row,Structure (SMILES),Bacterial Biotransformation
1,CN1CCOC(c2ccccc2)c2ccccc2C1 (centres undefined) [NEFOPAM],Compound NOT metabolized

# Settings: segatella copri, 12 h, 2 µM
# Description: The drug is tested on Prevotella copri strain: DSM18205 for biotransformation. The drug concentrations were measured before and after a 12-h incubation by liquid-chromatography-coupled mass spectrometry (LC–MS)
row,Structure (SMILES),Bacterial Biotransformation
1,O=C(CCCN1CCC(O)(c2ccc(Cl)cc2)CC1)c1ccc(F)cc1 [HALOPERIDOL],Compound NOT metabolized
2,CCN(CC)CCOC(=O)C1(C2CCCCC2)CCCCC1 [DICYCLOMINE],Compound NOT metabolized
3,O=C(Nc1ccccc1)OCC(CN1CCCCC1)OC(=O)Nc1ccccc1 (centres undefined) [DIPERODON],Compound NOT metabolized
4,CN1CCOC(c2ccccc2)c2ccccc2C1 (centres undefined) [NEFOPAM],Compound NOT metabolized

# Settings: anaerostipes sp., 12 h, 2 µM
# Description: The drug is tested on Anaerostipes sp. strain: fecal isolate for biotransformation. The drug concentrations were measured before and after a 12-h incubation by liquid-chromatography-coupled mass spectrometry (LC–MS)
row,Structure (SMILES),Bacterial Biotransformation
1,O=C(CCCN1CCC(O)(c2ccc(Cl)cc2)CC1)c1ccc(F)cc1 [HALOPERIDOL],Compound NOT metabolized
2,CCN(CC)CCOC(=O)C1(C2CCCCC2)CCCCC1 [DICYCLOMINE],Compound NOT metabolized
3,O=C(Nc1ccccc1)OCC(CN1CCCCC1)OC(=O)Nc1ccccc1 (centres undefined) [DIPERODON],Compound NOT metabolized
4,CN1CCOC(c2ccccc2)c2ccccc2C1 (centres undefined) [NEFOPAM],Compound NOT metabolized

# Reference: ChEMBL document CHEMBL5303573, “Mapping human microbiome drug metabolism by gut bacteria and their genes” (Nature, 2019)
